Patent publication US8987311B2, “Triazolyl-substituted pyridyl compounds useful as kinase inhibitors” (Bristol-Myers Squibb Company, priority 2012, dated 2015)

Target: T1, IRAK4 (Homo sapiens, UniProt Q9NWZ3)
T1 sequence (Q9NWZ3 1-460): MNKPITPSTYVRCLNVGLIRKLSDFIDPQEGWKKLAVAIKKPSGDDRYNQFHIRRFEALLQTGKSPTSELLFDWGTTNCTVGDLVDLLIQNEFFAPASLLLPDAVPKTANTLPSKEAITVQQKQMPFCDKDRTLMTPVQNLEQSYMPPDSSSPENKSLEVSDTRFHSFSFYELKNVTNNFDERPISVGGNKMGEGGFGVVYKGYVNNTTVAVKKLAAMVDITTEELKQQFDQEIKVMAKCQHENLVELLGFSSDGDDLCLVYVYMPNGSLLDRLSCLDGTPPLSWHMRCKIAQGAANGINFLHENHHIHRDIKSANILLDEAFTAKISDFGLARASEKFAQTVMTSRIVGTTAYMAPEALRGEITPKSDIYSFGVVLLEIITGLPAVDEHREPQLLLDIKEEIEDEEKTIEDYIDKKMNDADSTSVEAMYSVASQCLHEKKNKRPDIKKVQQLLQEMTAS
Assay: IRAK4 Inhibition Assay
Assay type: biochemical
Settings: ATP 500 μM; FL-IPTSPITTTYFFFKKK peptide 1.5 μM; IRAK4 0.6 nM; 60 min room temperature; Caliper LabChip 3000
Experimental: The assays were performed in U-bottom 384-well plates. The final assay volume was 30 μL prepared from 15 μL additions of enzyme and substrates (fluoresceinated peptide and ATP) and test compounds in assay buffer (20 mM HEPES pH 7.2, 10 mM MgCl2, 0.015% Brij35 and 4 mM DTT). The reaction was initiated by the combination of IRAK4 with substrates and test compounds. The reaction was incubated at room temperature for 60 min. and terminated by adding 45 μL of 35 mM EDTA to each sample. The reaction mixture was analyzed on the Caliper LabChip 3000 (Caliper, Hopkinton, Mass.) by electrophoretic separation of the fluorescent substrate and phosphorylated product. Inhibition data were calculated by comparison to no enzyme control reactions for 100% inhibition and vehicle-only reactions for 0% inhibition. The final concentrations of reagents in the assays are ATP, 500 μM; FL-IPTSPITTTYFFFKKK peptide 1.5 μM; IRAK4, 0.6 nM; and DMSO, 1.6%.

Compound	IC50 [nM]
Cc1sc(-c2cnc(Nc3ccc4ncsc4c3)cc2NC(C)C)nc1C(=O)NCCCN1CCCCC1 [Example 25, 2-(6-(benzo[d]thiazol-6-ylamino)-4-(isopropylamino)pyridin-3-yl)-5-methyl-N-(3-(piperidin-1-yl)propyl)thiazole-4-carboxamide]	2.7
NC(=O)c1nnc(-c2cnc(Nc3ccc4ncsc4c3)cc2N[C@H](CO)Cc2ccccc2)o1 [Example 152, (S)-5-(6-(Benzo[d]thiazol-6-ylamino)-4-((1-hydroxy-3-phenylpropan-2-yl)amino)pyridin-3-yl)-1,3,4-oxadiazole-2-carboxamide]	24.5
CC(C)Nc1cc(Nc2ccc3ncsc3c2)ncc1-c1nc(C(N)=O)co1 [Example 108, 2-(6-(Benzo[d]thiazol-6-ylamino)-4-(isopropylamino)pyridin-3-yl)oxazole-4-carboxamide]	2.7
CC(C)Nc1cc(Nc2ccc3ncsc3c2)ncc1-c1nc(C(=O)N2CCN(c3ccc(F)cc3F)CC2)cs1 [Example 31, (2-(6-(Benzo[d]thiazol-6-ylamino)-4-(isopropylamino)pyridin-3-yl)thiazol-4-yl)(4-(2,4-difluorophenyl)piperazin-1-yl)methanone]	764
COc1cccc(-c2cnc(Nc3ccc4ncsc4c3)cc2NC(C)C)n1 [Example 176, N6′-(Benzo[d]thiazol-6-yl)-N4′-isopropyl-6-methoxy-[2,3′-bipyridine]-4′,6′-diamine]	616
CC(C)Nc1cc(Nc2ccc3ncsc3c2)ncc1-c1nc(C(=O)NC[C@H](O)c2ccccc2)cs1 [Example 81, (R)-2-(6-(Benzo[d]thiazol-6-ylamino)-4-(isopropylamino)pyridin-3-yl)-N-(2-hydroxy-2-phenylethyl)thiazole-4-carboxamide]	26
CC(C)Nc1cc(Nc2ccc(C#N)cc2)ncc1-c1nnc(NC[C@@H](F)CO)o1 [Example 115, (R)-4-((5-(5-((2-Fluoro-3-hydroxypropyl)amino)-1,3,4-oxadiazol-2-yl)-4-(isopropylamino)pyridin-2-yl)amino)benzonitrile]	22.9
CNC(=O)c1ccc(Nc2cc(Nc3ccc4ncsc4c3)ncc2-c2nnc(C(=O)N3CC[C@@H](O)C3)s2)cc1 [Example 19, (R)-4-((2-(benzo[d]thiazol-6-ylamino)-5-(5-(3-hydroxypyrrolidine-1-carbonyl)-1,3,4-thiadiazol-2-yl)pyridin-4-yl)amino)-N-methylbenzamide]	3.2
CC(C)Nc1cc(Nc2ccc3ncsc3c2)ncc1-c1nc(C(=O)N2CCC3(CC2)C(=O)NCN3c2ccccc2)cs1 [Example 48, 8-(2-(6-(Benzo[d]thiazol-6-ylamino)-4-(isopropylamino)pyridin-3-yl)thiazole-4-carbonyl)-1-phenyl-1,3,8-triazaspiro[4.5]decan-4-one]	576
CC(C)Nc1cc(Nc2ccc3nsnc3c2)ncc1-c1nnc(C(=O)N2CC[C@@H](O)C2)s1 [Example 3, (R)-(5-(6-(Benzo[c][1,2,5]thiadiazol-5-ylamino)-4-(isopropylamino)pyridin-3-yl)-1,3,4-thiadiazol-2-yl)-(3-hydroxypyrrolidin-1-yl)methanone]	2.5
Cc1oc(-c2cnc(Nc3ccc4ncsc4c3)cc2NC(C)C)nc1NC(=O)OC(C)(C)C [Example 106, tert-butyl 2-(6-(benzo[d]thiazol-6-ylamino)-4-(isopropylamino)pyridin-3-yl)-5-methyloxazol-4-ylcarbamate]	875
CCOC(=O)c1nc(-c2cnc(Nc3ccc4ncsc4c3)cc2NC(C)C)sc1C [Example 23, Ethyl 2-(6-(benzo[d]thiazol-6-ylamino)-4-(isopropylamino)pyridin-3-yl)-5-methylthiazole-4-carboxylate]	961
CC(C)Nc1cc(Nc2ccc3ncsc3c2)ncc1-c1nnc(C(=O)N2CCC(N)CC2)o1 [Example 161, (4-Aminopiperidin-1-yl)(5-(6-(benzo[d]thiazol-6-ylamino)-4-(isopropylamino)pyridin-3-yl)-1,3,4-oxadiazol-2-yl)methanone]	23
CC(C)Nc1cc(Nc2ccc3ncsc3c2)ncc1-c1nnc(N2CCN(CCO)CC2)o1 [Example 129, 2-(4-(5-(6-(Benzo[d]thiazol-6-ylamino)-4-(isopropylamino)pyridin-3-yl)-1,3,4-oxadiazol-2-yl)piperazin-1-yl)ethanol]	25.4
CC(C)Nc1cc(Nc2ccc3ncsc3c2)ncc1-c1nnc[nH]1 [Example 1, N2-(benzo[d]thiazol-6-yl)-N4-isopropyl-5-(4H-1,2,4-triazol-3-yl)pyridine-2,4-diamine]	25.3
CC(C)Nc1cc(Nc2ccc3ncsc3c2)ncc1-c1nnc(NC2CNC2)o1 [Example 128, 5-(5-(Azetidin-3-ylamino)-1,3,4-oxadiazol-2-yl)-N2-(benzo[d]thiazol-6-yl)-N4-isopropylpyridine-2,4-diamine]	26.4
CC(C)Nc1cc(Nc2ccc3ncsc3c2)ncc1-c1nnc(C(=O)N2CCC(O)C2)s1 (single isomer, unassigned) [Example 6, (5-(6-(Benzo[d]thiazol-6-ylamino)-4-(isopropylamino)pyridin-3-yl)-1,3,4-thiadiazol-2-yl)(3-hydroxypyrrolidin-1-yl)methanone]	2.8
CC(C)Nc1cc(Nc2ccc3ncsc3c2)ncc1-c1ccc2cn[nH]c2c1 [Example 177, N2-(Benzo[d]thiazol-6-yl)-5-(1H-indazol-6-yl)-N4-isopropylpyridine-2,4-diamine]	813
CC(C)Nc1cc(Nc2ccc3ncsc3c2)ncc1-c1nnc(-c2cccc(C(N)=O)c2)o1 [Example 148, 3-(5-(6-(Benzo[d]thiazol-6-ylamino)-4-(isopropylamino)pyridin-3-yl)-1,3,4-oxadiazol-2-yl)benzamide]	564
CC(C)Nc1cc(Nc2ccc3ncsc3c2)ncc1-c1nnc(C(=O)N2CCC(O)C2)s1 (single isomer, unassigned) [Example 7, (5-(6-(Benzo[d]thiazol-6-ylamino)-4-(isopropylamino)pyridin-3-yl)-1,3,4-thiadiazol-2-yl)(3-hydroxypyrrolidin-1-yl)methanone]	3.2
CC(C)Nc1cc(Nc2ccc3ncsc3c2)ncc1-c1nc(C(=O)NCCCN2CCCC2)cs1 [Example 82, 2-(6-(Benzo[d]thiazol-6-ylamino)-4-(isopropylamino)pyridin-3-yl)-N-(3-(pyrrolidin-1-yl)propyl)thiazole-4-carboxamide]	3.1
CC(C)Nc1cc(Nc2ccc3ncsc3c2)ncc1-c1nnc(N2CCN(CCN3CCOCC3)CC2)o1 [Example 130, N2-(benzo[d]thiazol-6-yl)-N4-isopropyl-5-(5-(4-(2-morpholinoethyl)piperazin-1-yl)-1,3,4-oxadiazol-2-yl)pyridine-2,4-diamine]	22.1
CC(C)Nc1cc(Nc2ccc3ncsc3c2)ncc1-c1nc(C(=O)NCC2CCCCC2)cs1 [Example 56, 2-(6-(Benzo[d]thiazol-6-ylamino)-4-(isopropylamino)pyridin-3-yl)-N-(cyclohexylmethyl)thiazole-4-carboxamide]	795
CC(=O)NC1CCN(C(=O)c2nnc(-c3cnc(Nc4ccc5ncsc5c4)cc3NC(C)C)s2)C1 (centres unmarked) [Example 8, N-(1-(5-(6-(benzo[d]thiazol-6-ylamino)-4-(isopropylamino)pyridin-3-yl)-1,3,4-thiadiazole-2-carbonyl)pyrrolidin-3-yl)acetamide]	3.3
CC(C)Nc1cc(Nc2ccc3ncsc3c2)ncc1-c1nnc(-c2ccc(F)c(S(=O)(=O)NC(C)(C)C)c2)o1 [Example 143, 5-(5-(6-(Benzo[d]thiazol-6-ylamino)-4-(isopropylamino)pyridin-3-yl)-1,3,4-oxadiazol-2-yl)-N-(tert-butyl)-2-fluorobenzenesulfonamide]	676
CC(C)Nc1cc(Nc2ccc3ncsc3c2)ncc1-c1nc(C(=O)NCC2CCCO2)cs1 (centres unmarked) [Example 59, 2-(6-(Benzo[d]thiazol-6-ylamino)-4-(isopropylamino)pyridin-3-yl)-N-((tetrahydrofuran-2-yl)methyl)thiazole-4-carboxamide]	24
